Results: ChEMBL document CHEMBL5634101, “Discovery of NLRP3 inhibitors using machine learning: Identification of a hit compound to treat NLRP3 activation-driven diseases” (Eur J Med Chem, 2023)
Activity calls are given as the source filed them.

How the values were obtained:
[1] = test system: Mus musculus; experiment: Anti-inflammatory activity in MSU-induced C57 mouse model of gouty arthritis assessed as reduction in AUC of foot swelling at 30 mg/kg, ip preadministered with compound for 3 days followed by MSU injection and measured after 24 hrs; format: functional, organism-based; conditions: time 4.0 day
[2] = molecular target: T1, NACHT, LRR and PYD domains-containing protein 3 (Homo sapiens, UniProt Q96P20); experiment: (§1) Inhibition of NLRP3 inflammasome activation in […]-differentiated human THP-1 cells assessed as effect on potassium efflux at 2.5 to 10 uM preincubated with LPS for 3 hrs followed by compound addition for 30 mins prior to nigericin addition and measured after 30 mins by fluorescence based analysis; format: cell-based; conditions: dose 2.5-10 µM, time 1.0 hrs
[3] = Stability in human liver microsomes assessed as half-life at 1.5 uM measured upto 45 mins in presence of NADPH by LC-MS/MS analysis; format: ADME, Microsome
[4] = molecular target: NACHT, LRR and PYD domains-containing protein 3 (Mus musculus) (UniProt Q8R4B8); experiment: (§2) Inhibition of NLRP3 inflammasome activation in LPS/Nigericin induced C57 mouse BMDM cells assessed as reduction in IL-1beta maturation in cell supernatant at 2.5 to 10 uM preincubated with LPS for 3 hrs followed by compound addition for 30 mins prior to nigericin addition and measured after 30 mins by Western blot analysis; format: cell-based; conditions: dose 2.5-10 µM, time 1.0 hrs
[5] = molecular target: NACHT, LRR and PYD domains-containing protein 3 (Mus musculus) (UniProt Q8R4B8); experiment: (§3) Inhibition of NLRP3 inflammasome assembly in C57 mouse BMDM cells assessed as effect on ASC binding at 2.5 to 10 uM preincubated with LPS for 3 hrs followed by compound addition for 30 mins prior to nigericin addition and measured after 30 mins by immunoprecipitation; format: cell-based; conditions: dose 2.5-10 µM, time 1.0 hrs
[6] = test system: HEK-293T; experiment: Cytotoxicity against HEK293T cells assessed as reduction in cell viability upto 50 uM incubated for 24 hrs by CCK8 assay; format: toxicity, cell-based; conditions: human
[7] = molecular target: NACHT, LRR and PYD domains-containing protein 3 (Mus musculus) (UniProt Q8R4B8); experiment: as §2, with “pro-IL-1beta expression” for “IL-1beta maturation”; format: cell-based; conditions: dose 2.5-10 µM, time 1.0 hrs
[8] = molecular target: NACHT, LRR and PYD domains-containing protein 3 (Mus musculus) (UniProt Q8R4B8); experiment: as §2, with “pro-caspase-1(p45) expression” for “IL-1beta maturation”; format: cell-based; conditions: dose 2.5-10 µM, time 1.0 hrs
[9] = test system: Mus musculus; experiment: Anti-inflammatory activity in LPS-induced C57 sepsis mouse model assessed as reduction in inflammatory infiltration in liver at 10 to 30 mg/kg, ip preadministered with compound for 30 mins followed by LPS stimulation and measured after 6 hrs by H&E staining based analysis; format: functional, organism-based; conditions: dose 10-30 mg/kg, time 6.5 hrs
[10] = molecular target: NACHT, LRR and PYD domains-containing protein 3 (Mus musculus) (UniProt Q8R4B8); experiment: Inhibition of NLRP3 inflammasome activation in C57 mouse BMDM cells assessed as reduction in caspase-1 maturation at 5 uM preincubated with LPS for 3 hrs followed by compound addition for 30 mins prior to MSU addition and measured after 4 hrs by Western blot analysis; format: cell-based; conditions: time 4.5 hrs
[11] = molecular target: NACHT, LRR and PYD domains-containing protein 3 (Mus musculus) (UniProt Q8R4B8); experiment: Inhibition of NLRP3 inflammasome activation in C57 mouse BMDM cells assessed as reduction in IL-1beta secretion at 5 uM preincubated with LPS for 3 hrs followed by compound addition for 30 mins prior to nigericin addition and measured after 30 mins by Western blot analysis; format: cell-based; conditions: time 1.0 hrs
[12] = molecular target: NACHT, LRR and PYD domains-containing protein 3 (Mus musculus) (UniProt Q8R4B8); experiment: Inhibition of NLRP3 inflammasome activation in LPS/Nigericin induced C57 mouse BMDM cells assessed as reduction in […] preincubated with LPS for 3 hrs followed by compound addition for 30 mins prior to nigericin addition and measured after 30 mins by PI/Hoechst 33342 staining based analysis; format: cell-based; conditions: time 1.0 hrs
[13] = molecular target: NACHT, LRR and PYD domains-containing protein 3 (Mus musculus) (UniProt Q8R4B8); experiment: as §2, with “ASC expression” for “IL-1beta maturation”; format: cell-based; conditions: dose 2.5-10 µM, time 1.0 hrs
[14] = molecular target: NACHT, LRR and PYD domains-containing protein 3 (Mus musculus) (UniProt Q8R4B8); experiment: as §3, with “reduction in higher order complex cross-linking” for “effect on ASC binding”, “ASC oligomerization based blotting analysis” for “immunoprecipitation”; format: cell-based; conditions: dose 2.5-10 µM, time 1.0 hrs
[15] = molecular target: T1, NACHT, LRR and PYD domains-containing protein 3; experiment: Binding affinity to CM5 chip immobilized NLRP3 (unknown origin) assessed as dissociation constant by SPR analysis
[16] = molecular target: NACHT, LRR and PYD domains-containing protein 3 (Mus musculus) (UniProt Q8R4B8); experiment: Binding affinity to NLRP3 in mouse J774.A1 cells assessed as reduction in NLRP3 degradation incubated for 1 hrs at 48 to 81 degreeC by CETSA based Western blot analysis; format: cell-based
[17] = molecular target: T1, NACHT, LRR and PYD domains-containing protein 3; experiment: as §1, with “ROS production” for “potassium efflux”, “at” for “at 2.5 to”, “MitoSOX dye/Hoechst 33342 staining” for “fluorescence”, “based confocal microscopic” for “based”; format: cell-based; conditions: time 1.0 hrs
[18] = molecular target: NLR family CARD domain-containing protein 4 (Mus musculus) (UniProt Q3UP24); experiment: Inhibition of NLRC4 inflammasome activation in C57 mouse BMDM cells assessed as reduction in IL-1beta secretion at 5 uM preincubated with LPS for 3 hrs followed by Salmonella typhimurium stimulation for 2 hrs by Western blot analysis; format: cell-based
[19] = molecular target: NACHT, LRR and PYD domains-containing protein 3 (Mus musculus) (UniProt Q8R4B8); experiment: as §2, with “intracellular NLRP3 expression” for “IL-1beta maturation”; format: cell-based; conditions: dose 2.5-10 µM, time 1.0 hrs
[20] = test system: Mus musculus; experiment: Analgesic activity in MSU-induced C57 mouse model of gouty arthritis assessed as increase in pain threshold at 10 to 30 mg/kg, ip preadministered with compound for 3 days followed by MSU injection and measured after 24 hrs by von frey test; format: functional, organism-based; conditions: dose 10-30 mg/kg, time 4.0 day
[21] = molecular target: NACHT, LRR and PYD domains-containing protein 3 (Mus musculus) (UniProt Q8R4B8); experiment: Inhibition of NLRP3 inflammasome activation in C57 mouse BMDM cells assessed as reduction in IL-1beta secretion at 5 uM preincubated with LPS for 3 hrs followed by compound addition for 30 mins prior to ATP addition and measured after 30 mins by Western blot analysis; format: cell-based; conditions: time 1.0 hrs

T1 sequence (Q96P20 whole entry, the tested form may be a part): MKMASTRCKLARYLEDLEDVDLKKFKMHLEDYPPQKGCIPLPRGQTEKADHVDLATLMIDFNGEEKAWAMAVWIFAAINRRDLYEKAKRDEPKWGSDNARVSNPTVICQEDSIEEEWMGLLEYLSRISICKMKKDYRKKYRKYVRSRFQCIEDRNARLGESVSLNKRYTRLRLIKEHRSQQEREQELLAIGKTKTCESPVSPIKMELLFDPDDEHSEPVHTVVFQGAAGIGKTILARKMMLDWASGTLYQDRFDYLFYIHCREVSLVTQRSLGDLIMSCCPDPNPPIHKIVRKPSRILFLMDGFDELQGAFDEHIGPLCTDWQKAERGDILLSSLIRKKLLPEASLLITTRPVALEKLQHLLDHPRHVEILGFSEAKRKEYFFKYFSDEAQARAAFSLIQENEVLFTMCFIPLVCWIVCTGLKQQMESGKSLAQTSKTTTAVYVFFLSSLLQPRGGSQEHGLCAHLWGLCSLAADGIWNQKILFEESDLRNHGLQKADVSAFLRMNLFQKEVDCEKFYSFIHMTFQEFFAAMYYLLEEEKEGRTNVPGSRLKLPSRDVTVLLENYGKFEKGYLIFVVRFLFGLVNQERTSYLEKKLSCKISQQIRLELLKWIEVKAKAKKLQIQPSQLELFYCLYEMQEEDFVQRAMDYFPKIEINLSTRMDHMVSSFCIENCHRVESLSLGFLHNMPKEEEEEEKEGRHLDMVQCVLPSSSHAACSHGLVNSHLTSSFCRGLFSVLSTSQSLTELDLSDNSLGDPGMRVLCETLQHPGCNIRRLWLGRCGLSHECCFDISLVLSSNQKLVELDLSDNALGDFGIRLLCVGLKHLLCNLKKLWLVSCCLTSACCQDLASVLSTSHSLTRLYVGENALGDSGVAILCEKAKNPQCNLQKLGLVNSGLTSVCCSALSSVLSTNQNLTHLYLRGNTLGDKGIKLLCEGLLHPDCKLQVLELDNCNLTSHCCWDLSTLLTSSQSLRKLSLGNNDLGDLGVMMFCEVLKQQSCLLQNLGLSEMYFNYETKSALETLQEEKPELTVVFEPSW
Chain of NACHT, LRR and PYD domains-containing protein 3 (Mus musculus) (Q8R4B8 whole entry, the tested form may be a part): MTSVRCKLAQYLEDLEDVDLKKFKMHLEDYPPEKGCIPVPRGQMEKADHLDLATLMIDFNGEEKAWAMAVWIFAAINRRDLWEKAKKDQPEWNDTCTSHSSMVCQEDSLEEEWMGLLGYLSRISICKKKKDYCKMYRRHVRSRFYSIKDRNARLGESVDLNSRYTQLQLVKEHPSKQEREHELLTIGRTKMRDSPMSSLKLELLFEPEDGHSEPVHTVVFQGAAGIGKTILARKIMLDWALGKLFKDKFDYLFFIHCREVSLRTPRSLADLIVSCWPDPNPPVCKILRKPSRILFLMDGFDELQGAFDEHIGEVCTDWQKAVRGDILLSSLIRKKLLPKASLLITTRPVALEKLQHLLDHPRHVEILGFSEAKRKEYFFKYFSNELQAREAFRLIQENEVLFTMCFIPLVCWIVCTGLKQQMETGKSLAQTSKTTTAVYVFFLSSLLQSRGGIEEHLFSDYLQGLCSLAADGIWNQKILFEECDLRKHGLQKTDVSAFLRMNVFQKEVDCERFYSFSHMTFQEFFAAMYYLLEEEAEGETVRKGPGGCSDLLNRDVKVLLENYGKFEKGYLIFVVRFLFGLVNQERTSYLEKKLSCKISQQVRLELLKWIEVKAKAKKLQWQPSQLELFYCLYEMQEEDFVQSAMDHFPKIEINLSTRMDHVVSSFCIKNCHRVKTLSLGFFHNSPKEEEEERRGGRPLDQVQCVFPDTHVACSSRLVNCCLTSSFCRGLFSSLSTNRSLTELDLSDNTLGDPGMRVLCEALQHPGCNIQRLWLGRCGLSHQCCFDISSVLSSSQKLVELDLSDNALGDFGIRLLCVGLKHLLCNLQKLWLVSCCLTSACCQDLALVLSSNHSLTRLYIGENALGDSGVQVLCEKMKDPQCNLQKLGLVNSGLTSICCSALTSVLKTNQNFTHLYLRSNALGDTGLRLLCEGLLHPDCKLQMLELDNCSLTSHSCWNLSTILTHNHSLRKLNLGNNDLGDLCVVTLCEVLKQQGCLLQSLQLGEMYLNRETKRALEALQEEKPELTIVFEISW
Chain of NLR family CARD domain-containing protein 4 (Mus musculus) (Q3UP24 whole entry, the tested form may be a part): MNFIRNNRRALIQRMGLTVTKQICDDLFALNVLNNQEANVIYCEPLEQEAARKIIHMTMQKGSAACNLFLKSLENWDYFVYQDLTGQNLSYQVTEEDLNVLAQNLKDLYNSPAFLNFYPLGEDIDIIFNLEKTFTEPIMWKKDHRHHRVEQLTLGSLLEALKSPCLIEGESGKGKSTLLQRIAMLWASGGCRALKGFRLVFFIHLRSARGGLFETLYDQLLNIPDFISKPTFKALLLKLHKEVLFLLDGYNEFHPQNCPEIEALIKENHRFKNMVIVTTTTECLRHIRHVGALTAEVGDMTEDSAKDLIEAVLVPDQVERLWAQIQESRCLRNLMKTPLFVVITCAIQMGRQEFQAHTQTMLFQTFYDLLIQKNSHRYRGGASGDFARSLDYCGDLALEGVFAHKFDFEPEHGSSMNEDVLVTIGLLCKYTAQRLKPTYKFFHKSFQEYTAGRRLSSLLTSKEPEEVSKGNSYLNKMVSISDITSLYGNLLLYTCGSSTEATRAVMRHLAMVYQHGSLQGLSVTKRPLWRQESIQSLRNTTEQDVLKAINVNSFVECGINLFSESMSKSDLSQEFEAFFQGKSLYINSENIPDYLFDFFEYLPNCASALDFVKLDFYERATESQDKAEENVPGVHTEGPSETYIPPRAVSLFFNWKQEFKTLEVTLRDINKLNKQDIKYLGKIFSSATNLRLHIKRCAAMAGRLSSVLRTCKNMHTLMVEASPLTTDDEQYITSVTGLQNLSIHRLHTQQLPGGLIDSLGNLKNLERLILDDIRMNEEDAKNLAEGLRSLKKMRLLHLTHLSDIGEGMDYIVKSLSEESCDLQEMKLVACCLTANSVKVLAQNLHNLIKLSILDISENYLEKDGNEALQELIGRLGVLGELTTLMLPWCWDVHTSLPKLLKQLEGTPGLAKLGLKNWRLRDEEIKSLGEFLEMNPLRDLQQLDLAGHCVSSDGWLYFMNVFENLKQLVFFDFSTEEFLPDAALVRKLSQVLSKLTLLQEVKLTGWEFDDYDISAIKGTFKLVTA

COc1ccc(N2C(=O)/C(=C\c3ccccc3C(F)(F)F)SC2=S)cc1
7.2 µM: Kd [15]
Non-Toxic: Activity [6]
inactive: inhibition [2] | inhibition [7] | inhibition [8] | inhibition [13] | inhibition [17] | inhibition [18] | inhibition [19]
2.07 h: half-life at 1.5 µM [3]
active: Activity [1] | inhibition [4] | inhibition [5] | Activity [9] | inhibition [10] | inhibition [11] | inhibition [12] | inhibition [14] | Activity [16] | Activity [20] | inhibition [21]
